In patent publication US20220194959A1, “CRYSTAL FORM OF EGFR INHIBITOR AND PREPARATION METHOD THEREOF” (MEDSHINE DISCOVERY INC., priority 2019, published 2022):

Columns and labels:
Type in all cases: physicochemical
[1] = Hygroscopicity study by dynamic vapor sorption (DVS)
Protocol: 1.4. Dynamic Vapor Sorption, DVS Method
Instrument model: SMS DVS Advantage dynamic vapor sorption apparatus
Test conditions: The sample (10 to 15 mg) is weighed and placed in a DVS sample pan for testing.
The detailed DVS parameters are as follows:
Equilibration: dm/dt=0.01%/min (The shortest time: 10 min, and the longest time: 180 min)
Drying: Dried for 120 min at 0% RH
RH (%) test gradient: 10%
Range of RH (%) test gradient: 0%-90%-0%
The classification of hygroscopicity evaluation is as follows:
10-15 mg of the crystal form A and the crystal form C of the compound of formula (II) were weighed and placed into a DVS sample pan for testing.

[2] = Solubility assay in media with different pHs; details: for Solubility (2 hours) / Solubility (24 hours): 37° C.; for Final pH: filtrate of saturated solution; for solubility at 2 h / solubility at 24 h: 37 °C, thermodynamic from solid
Protocol: (§1) 9 parts of 4 mg of the crystal form A of the compound of formula (II) were weighed and added to a 1.5 mL sample bottle, respectively, and then 1 mL of different media (0.1 mol/L HCl, 0.01 mol/L HCl, pH3.8 buffer solution, pH4.5 buffer solution, pH5.5 buffer solution, pH6.0 buffer solution, pH6.8 buffer solution, pH7.4 buffer solution, and water) were added, respectively. Based on the dissolution situation, the raw material compound was continuously added until a saturated solution was formed. The magnetic bar was added to the above suspension, and the suspension was placed on a magnetic stirrer (37° C., protected from light) and stirred. […] The upper layer of the sample was filtered with a filter membrane, and the pH value of the filtrate was determined. The saturated solubility of the compound was determined by HPLC.
as §1, with “C” for “A”

[3] = Stability assay under illumination, high humidity, high temperature and acceleration (related substances and crystal form); parameters: Total impurity: unit not given here; details: for Change of crystal form: 10 days
Protocol: The stability of crystal form of the crystal form A and the crystal form C of the compound of formula (II) under the conditions of illumination, high humidity (92.5% RH), high temperature (60° C.) and acceleration (40° C./75% RH) was investigated.
Illumination test chamber, model: SHH-100GD-2, conditions: 5000±500 lux (visible light) and 90 mw/cm^2 (ultraviolet).
Electrothermal blowing dry box, model: GZX-9140MBE, conditions: 60° C.
Constant temperature and humidity chamber, model: LDS-800Y, conditions: 40° C./75% RH.
Constant temperature and humidity chamber, model: SHH-250SD, conditions: 25° C., 92.5% RH.
An appropriate amount of the crystal form A of the compound of formula (II) was weighed and placed in a dry and clean weighing bottle. The sample was spread into a thin layer, and fully exposed to assay conditions (60° C., 92.5% RH, illumination) and acceleration conditions (40° C./75% RH). After 17 days, the compound was taken out and determined for related substances and crystal form. […]

[4] = 0.1 mol/L HCl, pH 1, simulated gastric fluid
[5] = pH 6.8 buffer solution, pH 6.8, aqueous buffer
[6] = pH 7.4 buffer solution, pH 7.4, aqueous buffer

SMILES: COc1cc2ncnc(Nc3cccc(Cl)c3F)c2cc1N1CC2(CN(C)C2)OC1=O.Cc1ccc(S(=O)(=O)O)cc1 [crystal form C of the compound of formula (II)]
- ΔW (weight increase by moisture absorption) ([1]; 25° C. and 80% RH): 3.697%
- Classification of hygroscopicity ([1]; 25° C., 80% RH): hygroscopic
- Solubility (2 hours) ([2]; 0.01 mol/L HCl): 5666 µg/mL
- Solubility (24 hours) ([2]; 0.01 mol/L HCl): 2863 µg/mL
- Solubility (2 hours) ([2]; 0.1 mol/L HCl): >10000 µg/mL
- Solubility (24 hours) ([2]; 0.1 mol/L HCl): >10000 µg/mL
- Solubility (conclusion) ([2]; buffer solutions below pH 6.8 and purified water): high solubility
- Final pH ([2]; 0.01 mol/L HCl): 2.863
- Final pH ([2]; pH 3.8 buffer solution): 3.928
- Final pH ([2]; pH 4.5 buffer solution): 4.560
- Final pH ([2]; pH 5.5 buffer solution): 5.528
- Final pH ([2]; pH 6.0 buffer solution): 5.708
- Final pH ([2]; pH 6.8 buffer solution): 6.625
- Final pH ([2]; pH 7.4 buffer solution): 7.142
- Final pH ([2]; water): 5.444
- Evaluation of dissolution property ([2]; merged cell: 0.1 mol/L HCl, 0.01 mol/L HCl, pH 3.8, 4.5, 5.5, 6.0 buffer solutions and water): High solubility
- Evaluation of dissolution property ([2]; merged cell: pH 6.8 and pH 7.4 buffer solutions): Low solubility
- Solubility (2 hours) ([2]; pH 3.8 buffer solution): 1612 µg/mL
- Solubility (24 hours) ([2]; pH 3.8 buffer solution): 1681 µg/mL
- Solubility (2 hours) ([2]; pH 4.5 buffer solution): 1167 µg/mL
- Solubility (24 hours) ([2]; pH 4.5 buffer solution): 1186 µg/mL
- Solubility (2 hours) ([2]; pH 5.5 buffer solution): 916 µg/mL
- Solubility (24 hours) ([2]; pH 5.5 buffer solution): 863 µg/mL
- Solubility (2 hours) ([2]; pH 6.0 buffer solution): 699 µg/mL
- Solubility (24 hours) ([2]; pH 6.0 buffer solution): 328 µg/mL
- Solubility (2 hours) ([2]; pH 6.8 buffer solution): 260 µg/mL
- Solubility (24 hours) ([2]; pH 6.8 buffer solution): 71 µg/mL
- Solubility (2 hours) ([2]; pH 7.4 buffer solution): 81 µg/mL
- Solubility (24 hours) ([2]; pH 7.4 buffer solution): 40 µg/mL
- Solubility (2 hours) ([2]; water): 720 µg/mL
- Solubility (24 hours) ([2]; water): 646 µg/mL
- Stability compared with the crystal form D of the maleate of the compound of formula (I) [3]: better
- Related substance at relative retention time 0.24 ([3]; 40° - 75% RH - 10 days): 0.03
- Related substance at relative retention time 0.69 ([3]; 40° - 75% RH - 10 days): 0.06
- Related substance at relative retention time 0.88 ([3]; 40° - 75% RH - 10 days): 0.04
- Related substance at relative retention time 0.92 ([3]; 40° - 75% RH - 10 days): 0.02
- Related substance at relative retention time 1.24 ([3]; 40° - 75% RH - 10 days): 0.14
- Related substance at relative retention time 1.30 ([3]; 40° - 75% RH - 10 days): 0.17
- Related substance at relative retention time 1.81 ([3]; 40° - 75% RH - 10 days): 0.03
- Total impurity ([3]; 40° - 75% RH - 10 days): 0.53
- Related substance at relative retention time 0.24 ([3]; 60° - 10 days): 0.02
- Related substance at relative retention time 0.69 ([3]; 60° - 10 days): 0.26
- Related substance at relative retention time 0.88 ([3]; 60° - 10 days): 0.03
- Related substance at relative retention time 1.24 ([3]; 60° - 10 days): 0.11
- Related substance at relative retention time 1.30 ([3]; 60° - 10 days): 0.17
- Related substance at relative retention time 1.81 ([3]; 60° - 10 days): 0.05
- Related substance at relative retention time 1.89 ([3]; 60° - 10 days): 0.05
- Total impurity ([3]; 60° - 10 days): 0.69
- Related substance at relative retention time 0.24 ([3]; 92.5% RH - 10 days): 0.02
- Related substance at relative retention time 0.69 ([3]; 92.5% RH - 10 days): 0.04
- Related substance at relative retention time 0.88 ([3]; 92.5% RH - 10 days): 0.02
- Related substance at relative retention time 1.24 ([3]; 92.5% RH - 10 days): 0.12
- Related substance at relative retention time 1.30 ([3]; 92.5% RH - 10 days): 0.17
- Total impurity ([3]; 92.5% RH - 10 days): 0.37
- Related substance at relative retention time 0.24 ([3]; Illumination - 10 days): 0.02
- Related substance at relative retention time 0.69 ([3]; Illumination - 10 days): 0.04
- Related substance at relative retention time 0.81 ([3]; Illumination - 10 days): 0.04
- Related substance at relative retention time 0.92 ([3]; Illumination - 10 days): 0.05
- Related substance at relative retention time 1.15 ([3]; Illumination - 10 days): 0.02
- Related substance at relative retention time 1.17 ([3]; Illumination - 10 days): 0.03
- Related substance at relative retention time 1.24 ([3]; Illumination - 10 days): 0.11
- Related substance at relative retention time 1.30 ([3]; Illumination - 10 days): 0.17
- Total impurity ([3]; Illumination - 10 days): 0.40
- Related substance at relative retention time 0.24 ([3]; Initial sample): 0.02
- Related substance at relative retention time 0.69 ([3]; Initial sample): 0.04
- Related substance at relative retention time 0.88 ([3]; Initial sample): 0.02
- Related substance at relative retention time 0.92 ([3]; Initial sample): 0.02
- Related substance at relative retention time 1.24 ([3]; Initial sample): 0.12
- Related substance at relative retention time 1.30 ([3]; Initial sample): 0.17
- Total impurity ([3]; Initial sample): 0.42
- Change of crystal form ([3]; acceleration (40° C./75% RH)): not changed
- Change of crystal form ([3]; high humidity (92.5% RH)): not changed
- Change of crystal form ([3]; high temperature (60° C.)): not changed
- Change of crystal form ([3]; illumination): not changed
- Formation of degradation impurity (conclusion) ([3]; illumination, high temperature, high humidity, acceleration): produces a degradation impurity only under the condition of high temperature

SMILES: COc1cc2ncnc(Nc3cccc(Cl)c3F)c2cc1N1CC2(CN(C)C2)OC1=O.Cc1ccc(S(=O)(=O)O)cc1
- solubility at 2 h ([2]; 0.01 mol/L HCl, pH 2, simulated gastric fluid): 7440 µg/mL
- solubility at 2 h [2, 4]: > 10000 µg/mL
- solubility at 24 h [2, 4]: > 10000 µg/mL
- solubility at 24 h ([2]; pH 5.5 buffer solution, pH 5.5, aqueous buffer): 1300 µg/mL
- solubility at 2 h [2, 5]: 354 µg/mL
- solubility at 24 h [2, 5]: 73 µg/mL
- solubility at 2 h [2, 6]: 99 µg/mL
- solubility at 24 h [2, 6]: 22 µg/mL
- solubility at 24 h ([2]; water): 1140 µg/mL
